The values below come from patent US20090215758A1, “Use of 2,5-Disubstituted Thiazol-4-One Derivatives in Drugs” (Gruenenthal GmbH, priority 2005, published 2009).

The target of assay [1] is T1, vanilloid receptor 1 (VR1/TRPV1) of the rat species (Rattus norvegicus, UniProt O35433).
T1 construct: The spinal column is removed from beheaded rats; from tissue; host or cells: primary cells from rat dorsal root ganglia (DRGs)
Nature of the assay: Functional study on vanilloid receptor 1, FLIPR Ca2+ assay in rat dorsal root ganglia cells. Type of assay: cell-based. As to conditions: for inhibition at 10 µM / activation at 10 µM: test compound 10 μM; for inhibition at 10 µM: 5 min incubation, then 100 nM capsaicin, relative to maximum inhibition with 10 μM capsaicin, read-out: VR1 (rat) (% inhibition compared to 10 μM CP); for activation at 10 µM: Ca2+ signal relative to 10 μM capsaicin (CP), read-out: VR1 (rat) (% stimulation compared to 10 μM CP); for EC50: unit inferred.

The next assay has as its target T2, VR1 (human) (Homo sapiens, UniProt Q8NER1).
T2 construct: expressed in transfected cells; host or cells: CHO K1 cells (ECACC), stably transfected
Nature of the assay: Functional study on vanilloid receptor (VR1), FLIPR Ca2+ assay in CHO K1 cells stably transfected with the VR1 gene. It is filed as cell-based. To be noted: for inhibition at 10 µM / activation at 10 µM: CHO-K1, test compound 10 μM; for inhibition at 10 µM: 5 min incubation, then 100 nM capsaicin, compared to 10 μM CP; for activation at 10 µM: Ca2+ signal relative to 10 μM capsaicin (CP), read-out: VR1 (human) (% stimulation compared to 10 μM CP); for EC50: unit inferred.

SMILES strings stand for the structures. Where a name gives a salt, the structure may show the parent alone. Some results are limits rather than exact numbers.

By inhibition is commonly meant how much of the control response was suppressed. One may read the EC50 as the concentration at which the effect is half-maximal.

T2 sequence (Q8NER1 whole entry): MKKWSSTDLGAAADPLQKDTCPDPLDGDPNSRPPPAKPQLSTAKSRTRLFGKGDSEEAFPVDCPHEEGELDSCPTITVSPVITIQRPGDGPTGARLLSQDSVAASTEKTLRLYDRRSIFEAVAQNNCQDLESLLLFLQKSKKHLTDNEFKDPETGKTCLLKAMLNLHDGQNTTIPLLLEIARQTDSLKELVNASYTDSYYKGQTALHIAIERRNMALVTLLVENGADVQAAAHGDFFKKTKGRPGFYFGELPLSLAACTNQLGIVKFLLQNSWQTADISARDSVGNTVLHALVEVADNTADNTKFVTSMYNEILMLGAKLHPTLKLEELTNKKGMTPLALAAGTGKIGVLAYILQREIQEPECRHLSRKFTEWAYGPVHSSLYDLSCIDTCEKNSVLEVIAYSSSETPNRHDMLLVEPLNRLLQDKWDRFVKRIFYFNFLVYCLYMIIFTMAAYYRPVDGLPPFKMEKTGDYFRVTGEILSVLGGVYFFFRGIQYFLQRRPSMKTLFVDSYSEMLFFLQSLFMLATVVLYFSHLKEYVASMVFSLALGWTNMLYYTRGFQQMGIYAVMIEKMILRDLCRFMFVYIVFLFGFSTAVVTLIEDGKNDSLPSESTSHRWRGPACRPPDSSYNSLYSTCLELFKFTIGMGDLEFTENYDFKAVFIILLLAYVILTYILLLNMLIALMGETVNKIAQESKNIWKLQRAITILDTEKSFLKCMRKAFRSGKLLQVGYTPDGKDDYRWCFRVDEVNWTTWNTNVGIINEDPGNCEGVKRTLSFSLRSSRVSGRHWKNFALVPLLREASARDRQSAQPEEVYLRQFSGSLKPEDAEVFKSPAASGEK
T1 sequence (O35433 whole entry): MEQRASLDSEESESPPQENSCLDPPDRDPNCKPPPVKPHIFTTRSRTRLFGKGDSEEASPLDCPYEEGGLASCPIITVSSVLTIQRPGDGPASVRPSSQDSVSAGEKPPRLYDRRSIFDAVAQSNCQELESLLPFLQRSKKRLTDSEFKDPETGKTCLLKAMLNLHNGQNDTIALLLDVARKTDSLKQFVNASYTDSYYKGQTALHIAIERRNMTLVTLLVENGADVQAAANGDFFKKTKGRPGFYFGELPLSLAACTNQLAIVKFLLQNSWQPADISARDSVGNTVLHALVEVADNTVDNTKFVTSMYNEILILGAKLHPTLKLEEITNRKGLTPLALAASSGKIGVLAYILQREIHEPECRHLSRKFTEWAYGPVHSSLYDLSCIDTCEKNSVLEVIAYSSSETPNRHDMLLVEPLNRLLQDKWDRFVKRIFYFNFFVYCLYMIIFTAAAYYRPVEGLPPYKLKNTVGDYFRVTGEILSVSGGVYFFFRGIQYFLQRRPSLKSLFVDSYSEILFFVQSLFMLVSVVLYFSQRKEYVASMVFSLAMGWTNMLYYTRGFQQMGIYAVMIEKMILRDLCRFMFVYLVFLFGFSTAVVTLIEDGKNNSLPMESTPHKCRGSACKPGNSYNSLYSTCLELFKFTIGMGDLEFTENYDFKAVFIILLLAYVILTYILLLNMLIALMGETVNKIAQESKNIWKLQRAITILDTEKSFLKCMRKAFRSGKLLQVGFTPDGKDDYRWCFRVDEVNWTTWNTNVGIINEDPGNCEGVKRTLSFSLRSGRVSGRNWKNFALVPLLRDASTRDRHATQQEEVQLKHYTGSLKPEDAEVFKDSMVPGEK

Consider `CC(C)(C)c1ccc(C=C2SC(N3CCCCCC3)=NC2=O)cc1` [Example 200, 2-azepan-1-yl-5-(4-tert-butylbenzylidene)thiazol-4-one hydrobromide], for which, in assay [1], the inhibition at 10 µM was 46.2%, the activation at 10 µM amounted to 31.4% and the EC50 was greater than 25 µM. At VR1 (human), the inhibition at 10 µM turned out to be 2.12%, the activation at 10 µM was 17.5% and the EC50 was greater than 25 µM.
Regarding `CCN(CC)C1=NC(=O)C(=Cc2cccc(C(F)(F)F)c2)S1` [Example 214, 2-diethylamino-5-(3-trifluoromethylbenzylidene)thiazol-4-one], the inhibition at 10 µM came to 50.1% in assay [1] and 56.7% against VR1 (human). Also, the activation at 10 µM in assay [1] was 13.7%; at VR1 (human), 6.08%.
Take `Cc1ccc(C=CC=C2SC(N3CCOCC3)=NC2=O)cc1` [Example 19, 2-morpholin-4-yl-5-(3-p-tolylallylidene)thiazol-4-one]: in assay [1], the inhibition at 10 µM was determined as 31.4%, the activation at 10 µM stood at 11.7% and it took 7.76 µM to reach a half-maximal effect (EC50). Moreover, on VR1 (human), 10 µM produced 10.8% inhibition, the activation at 10 µM came out at 8.82% and a half-maximal response (EC50) required 13 µM.
Turning to `Cc1ccc(N2CCN(C3=NC(=O)C(=CC=Cc4ccccc4)S3)CC2)nn1` [Example 161, 2-[4-(6-methylpyridazin-3-yl)piperazin-1-yl]-5-(3-phenylallylidene)thiazol-4-one], the values for the inhibition at 10 µM (in assay [1]; against VR1 (human)) were 17% and 47.2%, respectively. The figures for the activation at 10 µM (in assay [1]; on VR1 (human)) were 2.5% and 2.43%, respectively.
Turning to `COc1ccc(C=C2SC(N3CCOCC3)=NC2=O)cc1` [Example 228, 5-(4-methoxybenzylidene)-2-morpholin-4-ylthiazol-4-one], in assay [1], the inhibition at 10 µM came out at 4.84%, the activation at 10 µM came to 16% and a half-maximal effect (EC50) was put at 14.3 µM. At VR1 (human), 10 µM produced 0.61% inhibition, the activation at 10 µM was determined as 12.2% and the EC50 is 26.5 µM.
For the compound `O=C1N=C(N2CCSCC2)SC1=Cc1ccc2ccccc2c1` [Example 54, 5-naphthalen-2-ylmethylene-2-thiomorpholin-4-ylthiazol-4-one], in assay [1], the inhibition at 10 µM was 87.9%, the activation at 10 µM turned out to be 96.1% and the EC50 came to 2.5 µM. Moreover, at VR1 (human), the inhibition at 10 µM came to 81.7%, the activation at 10 µM was determined as 79.6% and the EC50 is greater than 25 µM.
On to `O=C1N=C(N2CCN(c3ncccc3Cl)CC2)SC1=Cc1ccc2ccccc2c1` [Example 49, 2-[4-(3-chloropyridin-2-yl)piperazin-1-yl]-5-naphthalen-2-ylmethylenethiazol-4-one], for which, in assay [1], the inhibition at 10 µM was found to be 78.5% and the activation at 10 µM amounted to 0.4%. Besides, on VR1 (human), testing at 10 µM gave an inhibition of 34.1% and the activation at 10 µM amounted to 0%.
For `O=C1N=C(N2CCOCC2)SC1=CC=Cc1ccccc1` [Example 189, 2-morpholin-4-yl-5-(3-phenylallylidene)thiazol-4-one hydrobromide], in assay [1], the inhibition at 10 µM was 5.61%, the activation at 10 µM is 6.64% and the EC50 was greater than 25 µM. Also, on VR1 (human), the inhibition at 10 µM is 8.14%, the activation at 10 µM is 11.2% and the EC50 was greater than 50 µM.
Take `O=C1N=C(N2CCCCCC2)SC1=CC=Cc1ccccc1` [Example 192, 2-azepan-1-yl-5-(3-phenylallylidene)thiazol-4-one hydrobromide]: in assay [1], the inhibition at 10 µM stood at 2.18%, the activation at 10 µM came to 1.34% and the half-maximal effective concentration (EC50) was greater than 50 µM. At VR1 (human), testing at 10 µM gave an inhibition of 10.3%, the activation at 10 µM was found to be 16.7% and the EC50 is greater than 50 µM.
With `CC(C)(C)c1ccc(C=C2SC(N3CCCC3)=NC2=O)cc1` [Example 199, 5-(4-tert-butylbenzylidene)-2-pyrrolidin-1-ylthiazol-4-one hydrobromide], in assay [1], the inhibition at 10 µM came to 69.5% and the activation at 10 µM was found to be 42.9%. Besides, at VR1 (human), the inhibition at 10 µM came out at 4.43% and the activation at 10 µM worked out at 9.64%.
Consider `O=C1N=C(N2CCOCC2)SC1=Cc1cccc(Oc2ccccc2)c1` [Example 18, 2-morpholin-4-yl-5-(3-phenoxybenzylidene)thiazol-4-one], for which, in assay [1], the inhibition at 10 µM amounted to 88%, the activation at 10 µM turned out to be 144% and it took 1.29 µM to reach a half-maximal effect (EC50). On VR1 (human), the inhibition at 10 µM worked out at 79.2%, the activation at 10 µM turned out to be 139% and the EC50 was determined as 3.65 µM.
On to `O=C1N=C(N2CCSCC2)SC1=Cc1ccc(OC(F)(F)F)cc1` [Example 24, 2-thiomorpholin-4-yl-5-(4-trifluoromethoxybenzylidene)thiazol-4-one], for which, in assay [1], the inhibition at 10 µM was determined as 91.3%, the activation at 10 µM was determined as 110% and the 50% effective concentration (EC50) stood at 11.9 µM. In addition, at VR1 (human), the inhibition at 10 µM stood at 61.6%, the activation at 10 µM was 61.3% and the concentration for a half-maximal effect (EC50) is greater than 25 µM.
Take `Cc1ccc(C=C2SC(N3CCSCC3)=NC2=O)cc1` [Example 14, 5-(4-methylbenzylidene)-2-thiomorpholin-4-ylthiazol-4-one hydrobromide]: in assay [1], the inhibition at 10 µM was determined as 82.1%, the activation at 10 µM is 108% and a half-maximal response (EC50) required 0.95 µM. Also, at VR1 (human), the inhibition at 10 µM stood at 89.4%, the activation at 10 µM stood at 107% and the 50% effective concentration (EC50) was found to be 5.17 µM.
`CC(=CC=C1SC(N2CCOCC2)=NC1=O)c1cccc(C(F)(F)F)c1` [Example 44, 2-morpholin-4-yl-5-[3-(3-trifluoromethylphenyl)but-2-enylidene]thiazol-4-one]: in assay [1], the inhibition at 10 µM was determined as 64.3% and the activation at 10 µM was 39.6%. Further, on VR1 (human), testing at 10 µM gave an inhibition of 34.3% and the activation at 10 µM stood at 10.9%.
On to `O=C1N=C(N2CCSCC2)SC1=Cc1cccc(C(=O)N2CCN(c3ncccc3Cl)CC2)c1` [Example 88, 5-{3-[4-(3-chloropyridin-2-yl)piperazine-1-carbonyl]benzylidene}-2-thiomorpholin-4-ylthiazol-4-one], for which the inhibition at 10 µM in assay [1] is 90.1%; at VR1 (human), 71.1%. The activation at 10 µM in assay [1] was determined as 72.8%; on VR1 (human) it was 61.4%.
On to `COCCNC1=NC(=O)C(=Cc2ccc(C(C)(C)C)cc2)S1` [Example 216, 5-(4-tert-butylbenzylidene)-2-(2-methoxyethylamino)thiazol-4-one hydrobromide], for which, in assay [1], the inhibition at 10 µM came to 22.1%, the activation at 10 µM worked out at 1.24% and the EC50 is 1.5 µM. Also, at VR1 (human), testing at 10 µM gave an inhibition of 51.1%, the activation at 10 µM came out at 2.08% and the EC50 came out at 5.4 µM.
For `COc1ccc(C=C2SC(N3CCOCC3)=NC2=O)cc1OCc1ccccc1` [Example 13, 5-(3-benzyloxy-4-methoxybenzylidene)-2-morpholin-4-ylthiazol-4-one], in assay [1], the inhibition at 10 µM was 46.2% and the activation at 10 µM amounted to 42.1%. On VR1 (human), testing at 10 µM gave an inhibition of 11.1% and the activation at 10 µM is 6.15%.
